Patent US10266807B2, “Methods and compositions for culturing endoderm progenitor cells in suspension” (FUJIFILM Cellular Dynamics, Inc., priority 2013, dated 2019)

Experiments:
Assay type in all cases: cell-based, human
[1] = tested on: undifferentiated iPSCs (2.038); experiment: Generation of definitive endoderm (DE) from undifferentiated iPSCs with or without CHIR; conditions: for CXCR4/CD117 co-expressing cells / Output DE Day 7: 2 μM CHIR (+)
Method: Undifferentiated iPSCs maintained using Essential 8 on Matrigel were plated at a seeding density of 13,000 cells/cm^2 on Matrigel. Four days-post-plating, the cells were placed in 90% RPMI/10% SFD media containing 100 ng/mL Activin A for one day followed by incubation with 90% RPMI/10% SFD supplemented with 100 ng/mL Activin A, 2.5 ng/mL BMP4, 10 ng/mL VEGF, and 10 ng/mL zebrafish FGF2 for the next two days. From day 4-12, the cells were placed in SFD media supplemented with 100 ng/mL Activin A, 2.5 ng/mL BMP4, 10 ng/mL VEGF, and 10 ng/mL zebrafish FGF2. Supplementation with 2 μM CHIR was included in one set at day 1 of differentiation while it was omitted in another set. The cells were harvested on day 7 using TrypLE. The total viable cell number post digestion was determined at each time point. The percentage of CXCR4, CD117 co-expressing cells was determined by cell surface staining by flow cytometry (Table 1). The absolute number of CXCR4/CD117 double-positive cells was calculated. The ratio of input iPSC to output DE was also quantified (Table 1).

[2] = tested on: beta cells derived from 2.038AT4 cells; experiment: C-peptide release assay (glucose responsiveness) of end-stage beta cells
Method: C-peptide release assays were performed as previously described (D'Amour et al., 2006) using a Mercodia Ultrasensitive C-peptide ELISA kit (Mercodia). Briefly, aggregates that were beyond day 25 in the beta cell differentiation protocol from each iPSC clone were placed in a millicell PCF insert within a 24 well plate. The aggregates were equilibrated in 1 ml KRBH medium for one hour at 37° C. and 5% CO2, 20% O2. The aggregates were next placed in a second well containing 0.5 ml KRBH medium supplemented with serially increasing levels of glucose from 1-20 mM. Each incubation lasted for 20 mins at 37° C. and 5% CO2, 20% O2. Extreme care was taken to drain the aggregates of all residual fluid between well transfers. The supernatant left behind was collected and stored at −20° C. At the end of the experiment the aggregates were digested with TryPLE and the total viable cell count per sample was determined to normalize the data. C-peptide secretion was normalized based on the total viable cell number taken for each sample.
C-peptide release assays were performed as described in Example 12. Beta cell cultures induced with Dox induction between days 10-15 generated a response to between 1-5 mM glucose (FIG. 28). […]
The experiment was performed again with the addition of Dox (1.5 μg/ml) between day 10-15 of beta cell differentiation. […] Glucagon expression was not recorded. […]

2.038AT4 cells [3] = experiment: Beta cell differentiation of 2.038AT4 EPCs with Dox induction, intracellular flow cytometry; conditions: Dox 1.5 μg/ml between day 10-15, harvested day 15, repeat experiment
Method: 2.038AT4.14EGN (also called 2.038AT4) cells were maintained in Essential 8 under hypoxic conditions during DE induction without CHIR using 2.5 ng/ml BMP4. DE were maintained in EPC cycling media without MEFs under hypoxic conditions. Media was supplemented with neomycin (100 ug/ml) and puromycin (600 ng/ml) for iPSC culture, DE culture, and EPC cycling. At P7, EPC were harvested and MACS purification was performed using CD34/CXCR4/CD117. Purified cells were plated on neat Matrigel in the presence of a Rock inhibitor.
Beta cell differentiation was initiated 5 days post re-aggregation according to the protocol described by Nostro et al. (2011) further modified by Cheng et al. (2012a) in a 2D format. Dox was added at different stages of the beta cell differentiation process. Dox (1.5 μg/ml) induction was performed between days 6-15 of beta cell differentiation, between days 8-15 of beta cell differentiation, or between days 10-15 of beta cell differentiation. The cells were harvested on day 15 of beta cell differentiation, fixed, and stained for quantification of PDX/NeuroD1/C-peptide/Glucagon/Somatostatin by intracellular flow cytometry.
The experiment was performed again with the addition of Dox (1.5 μg/ml) between day 10-15 of beta cell differentiation. The cells were harvested on day 15 of beta cell differentiation and assayed for PDX/NeuroD1/C-Peptide/Glucagon/Somatostatin expression levels by intracellular flow cytometry. […] The total C-Peptide levels were around 10% of which 5% of cells appeared monohormonal. Glucagon expression was not recorded. C-peptide release assays were performed as described above. […] Both the Dox induced and un-induced beta cell cultures were capable of eliciting a dose-dependent response to glucose (FIG. 30).

2.038AT4 cells [4] = experiment: qPCR analysis of ERG and GFI expression; conditions: Dox induction during beta cell differentiation
Method: The levels of ERG (FIG. 32A) and GFI (FIG. 32B) transcripts at different stages of the process were quantified from 2.038 and 2.038AT4 cells. Dox induction of 2.038AT4 cells was only applied at the beta cell differentiation stage. Cells from 2.038AT4 were always cultured in media containing neomycin (100 μg/mL) and puromycin (600 ng/mL) regardless of stage of differentiation. RNA was isolated from undifferentiated iPSC, DE, EPC, and beta cell cultures derived from 2.038 cells and 2.038AT4 cells using the RNeasy Plus Mini Kit from Qiagen (Catalog #74136) according to the manufacturer's directions. RNA quantification was performed using the Nanodrop 2000. RNA was reverse transcribed with the ImProm-II RT System from Promega (Catalog # A3800) according to manufacturer's directions. rt-qPCR was performed using TaqMan Gene Expression Master Mix (Catalog #4369016) and TaqMan probes (ERG: Hs01554629_m1; GFI1: Hs00382207_m1; GAPDH: Hs99999905_m1) with technical triplicates and run on the Roche LightCycler for 45 cycles. Fold induction was calculated by DeltaCp with normalization to GAPDH. Undifferentiated iPSCs of the same genetic background were used as negative controls. Whole pancreas RNA (Ambion Catalog # AM7954) and human islets provided by the UW Islet Core were used as positive controls.

| Level of ERG/GFI transcripts (2.038AT4 cells [4]) | Structure (SMILES) | CXCR4/CD117 co-expressing cells ([1]; cell line 2.038 (1131), format 6 well, harvested day 7) [%] | Output DE Day 7 ([1]; cell line 2.038 (1131), format 6 well, input iPSCs 1.95 ×10^6) | CXCR4/CD117 co-expressing cells ([1]; cell line 2.038, format T150, harvested day 7) [%] | Output DE Day 7 ([1]; cell line 2.038, format T150, input iPSCs 5.85 ×10^6) | Effect on efficiency of DE formation ([1]; CHIR added on day zero of endoderm induction) | Glucose concentration range of dose-dependent C-peptide response ([2]; Dox 1.5 μg/ml between day 10-15, repeat experiment, un-induced cultures also responded) [mM] | Glucose concentration range eliciting C-peptide response ([2]; Dox induction between days 10-15) [mM] | Monohormonal cells (2.038AT4 cells [3]) [%] | PDX/NeuroD1 expression (2.038AT4 cells [3]) | Total C-Peptide levels (2.038AT4 cells [3]) |
| --- | --- | --- | --- | --- | --- | --- | --- | --- | --- | --- | --- |
| – | Cc1c[nH]c(-c2cnc(NCCNc3ccc(C#N)cn3)nc2-c2ccc(Cl)cc2Cl)n1 [CHIR, CHIR99021] | 45 | 84 ×10^6 | 54 | 186 ×10^6 | did not result in increased efficiency of DE formation | – | – | – | – | – |
| slight increase | C[C@H]1c2cccc(O)c2C(=O)C2=C(O)[C@]3(O)C(=O)C(C(N)=O)=C(O)[C@@H](N(C)C)[C@@H]3[C@@H](O)[C@@H]21 [Dox, Doxycycline] | – | – | – | – | – | 1 to 15 | 1 to 5 | 5 | 25%-30 | around 10% |
